The source made the active and inactive calls. The rule behind the calls is not given here.
Assays:
[1] = target: T1, Toll-like receptor 4 (Homo sapiens, UniProt O00206); test: Agonist activity at human TLR4 in human HEK-Blue hTLR4 cells assessed as NF-kappaB activation incubated for 48 hrs by SEAP reporter gene based Quanti-blue assay; type: cell-based
[2] = target: T1, Toll-like receptor 4; test: Agonist activity at TLR4 in human MONO-MAC-6 cells assessed as induction of MIP-1beta release incubated for 24 hrs by ELISA; type: cell-based
[3] = target: T1, Toll-like receptor 4; test: Agonist activity at TLR4 in human PBMC cells assessed as induction of TNFalpha release incubated for 20 hrs by ELISA; type: cell-based
[4] = target: T1, Toll-like receptor 4; test: Agonist activity at TLR4 in human PBMC cells assessed as induction of MIP-1beta release incubated for 20 hrs by ELISA; type: cell-based
[5] = target: T1, Toll-like receptor 4; test: Agonist activity at TLR4 in human PBMC cells assessed as induction of IL-1beta release incubated for 20 hrs by ELISA; type: cell-based
[6] = target: T2, Toll-like receptor 4 (Mus musculus, UniProt Q9QUK6); test: Agonist activity at TLR4 in mouse RAW264.7 cells assessed as induction of MIP-1beta release incubated for 24 hrs by ELISA; type: cell-based
T2 sequence (Q9QUK6 whole entry): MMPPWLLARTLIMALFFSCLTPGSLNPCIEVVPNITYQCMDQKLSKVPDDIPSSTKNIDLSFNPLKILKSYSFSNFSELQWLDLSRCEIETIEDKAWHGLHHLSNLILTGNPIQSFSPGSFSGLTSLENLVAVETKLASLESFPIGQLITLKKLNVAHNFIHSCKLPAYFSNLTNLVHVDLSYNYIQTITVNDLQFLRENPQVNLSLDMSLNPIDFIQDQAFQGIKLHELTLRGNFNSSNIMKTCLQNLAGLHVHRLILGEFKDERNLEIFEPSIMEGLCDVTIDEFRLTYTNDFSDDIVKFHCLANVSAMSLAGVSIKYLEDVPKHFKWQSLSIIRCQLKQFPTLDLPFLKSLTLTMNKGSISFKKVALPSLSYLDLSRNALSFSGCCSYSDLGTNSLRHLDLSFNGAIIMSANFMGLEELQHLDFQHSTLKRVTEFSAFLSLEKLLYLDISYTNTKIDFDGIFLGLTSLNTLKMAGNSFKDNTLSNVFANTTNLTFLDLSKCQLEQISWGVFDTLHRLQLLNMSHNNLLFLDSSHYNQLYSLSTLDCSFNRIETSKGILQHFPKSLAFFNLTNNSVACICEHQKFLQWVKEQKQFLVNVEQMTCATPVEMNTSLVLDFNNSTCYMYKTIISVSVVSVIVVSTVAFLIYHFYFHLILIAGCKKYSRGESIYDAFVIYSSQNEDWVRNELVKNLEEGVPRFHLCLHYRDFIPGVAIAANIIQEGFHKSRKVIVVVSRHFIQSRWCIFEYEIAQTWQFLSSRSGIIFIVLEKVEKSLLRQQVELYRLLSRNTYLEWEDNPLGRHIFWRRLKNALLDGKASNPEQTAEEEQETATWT

[7] = target: T2, Toll-like receptor 4; test: Agonist activity at mouse TLR4 in human HEK-Blue mTLR4 cells assessed as NF-kappaB activation incubated for 48 hrs by SEAP reporter gene based Quanti-blue assay; type: cell-based
[8] = target: T1, Toll-like receptor 4; test: Agonist activity at TLR4 in human PBMC cells assessed as induction of RANTES release incubated for 20 hrs by ELISA; type: cell-based
[9] = Aqueous stability of the compound assessed as drug degradation at 2 to 8 degreeC and measured after 1 month by LC-MS analysis; type: physicochemical; conditions: buffer, 730 h; time 1 months
[10] = species on record: Mus musculus; test: Immuno-adjuvant activity in H3N2-split A/Victoria/210/2009 influenza virus-immunized BALB/c mouse model assessed as increase in influenza specific serum IgG1 titer level at 0.001 to 0.1 ug,IM and measured after 14 days by ELISA; type: functional, organism-based; conditions: dose 0.001-0.1 µg, time 14.0 day
[11] = Toxicity in H3N2-split A/Victoria/210/2009 influenza virus-immunized BALB/c mouse model assessed as reactogenicity at 0.001 to 0.1 ug,IM administered on day 0 and 14 and measured after 28 days; conditions: in vivo, 672 h, dose 0.001-0.1 µg, time 28 day
[12] = tested on: Mus musculus; test: Immuno-adjuvant activity in H3N2-A/HK/68 influenza virus-immunized BALB/c mouse model assessed as increase in survival rate at 1 ug,INH administered 48hrs prior to influenza challenge and measured after 18 days; type: functional; conditions: dose 1 µg, time 18 day
[13] = species on record: Mus musculus; test: Immuno-adjuvant activity in H3N2-split A/Victoria/210/2009 influenza virus-immunized BALB/c mouse model assessed as increase in influenza specific serum IgG titer level at 0.001 to 0.1 ug,IM and measured after 14 days by ELISA; type: functional, organism-based; conditions: dose 0.001-0.1 µg, time 14.0 day
[14] = species on record: Mus musculus; test: Immuno-adjuvant activity in H3N2-split A/Victoria/210/2009 influenza virus-immunized BALB/c mouse model assessed as increase in influenza specific serum IgG2a titer level at 0.001 to 0.1 ug,IM and measured after 14 days by ELISA; type: functional, organism-based; conditions: dose 0.001-0.1 µg, time 14.0 day
[15] = Aqueous stability of the compound assessed as drug degradation at 2 to 8 degreeC and measured upto 12 months by RP-HPLC analysis; type: physicochemical; conditions: buffer, 8760 h
[16] = Aqueous stability of the compound assessed as drug degradation at 2 to 8 degreeC and measured upto 12 months by LC-MS analysis; type: physicochemical; conditions: buffer, 8760 h
[17] = Toxicity in H3N2-A/HK/68 influenza virus-immunized BALB/c mouse model assessed as change in body temperature at 1 to 10 ug,INH administered 48hrs prior to influenza challenge and measured after 18 days; conditions: in vivo, inhaled_or_intranasal, 432 h, dose 1-10 µg, time 18 day
[18] = tested on: Mus musculus; test: Immuno-adjuvant activity in H3N2-split A/Victoria/210/2009 influenza virus-immunized BALB/c mouse model assessed as increase in influenza specific serum IgG2a titer level at 0.001 to 0.1 ug,IM administered on day 0 and 14 and measured after 28 days by ELISA; type: functional, organism-based; conditions: dose 0.001-0.1 µg, time 28.0 day
[19] = Toxicity in H3N2-split A/Victoria/210/2009 influenza virus-immunized BALB/c mouse model assessed as abnormality at 0.001 to 0.1 ug,IM administered on day 0 and 14 and measured after 28 days; conditions: in vivo, 672 h, dose 0.001-0.1 µg, time 28 day
[20] = tested on: PBMC; test: Cytotoxicity against human PBMC cells assessed as reduction in cell viability upto 10 ug/ml incubated for 18 to 24 hrs by PrestoBlue reagent based assay; type: toxicity; conditions: time 18-24 hrs, dose < 10 µg/ml
[21] = tested on: Mus musculus; test: Immuno-adjuvant activity in H3N2-split A/Victoria/210/2009 influenza virus-immunized BALB/c mouse model assessed as increase in influenza specific serum IgG titer level at 0.001 to 0.1 ug,IM administered on day 0 and 14 and measured after 28 days by ELISA; type: functional, organism-based; conditions: dose 0.001-0.1 µg, time 28.0 day
[22] = Toxicity in H3N2-A/HK/68 influenza virus-immunized BALB/c mouse model assessed as disease index at 1 to 10 ug,INH administered 48hrs prior to influenza challenge and measured after 18 days; conditions: in vivo, inhaled_or_intranasal, 432 h, dose 1-10 µg, time 18 day
[23] = tested on: Mus musculus; test: Immuno-adjuvant activity in H3N2-A/HK/68 influenza virus-immunized BALB/c mouse model assessed as increase in survival rate at 10 ug,INH administered 48hrs prior to influenza challenge and measured after 18 days; type: functional; conditions: dose 10 µg, time 18 day
[24] = tested on: Mus musculus; test: Immuno-adjuvant activity in H3N2-split A/Victoria/210/2009 influenza virus-immunized BALB/c mouse model assessed as increase in influenza specific serum IgG1 titer level at 0.001 to 0.1 ug,IM administered on day 0 and 14 and measured after 28 days by ELISA; type: functional, organism-based; conditions: dose 0.001-0.1 µg, time 28.0 day
[25] = Aqueous stability of the compound assessed as drug degradation at 40 degreeC and measured upto 12 months by LC-MS analysis; type: physicochemical; conditions: buffer, 8760 h
[26] = Toxicity in H3N2-A/HK/68 influenza virus-immunized BALB/c mouse model assessed as body weight change at 1 to 10 ug,INH administered 48hrs prior to influenza challenge and measured after 18 days; conditions: in vivo, inhaled_or_intranasal, 432 h, dose 1-10 µg, time 18 day

T1 sequence (O00206 whole entry): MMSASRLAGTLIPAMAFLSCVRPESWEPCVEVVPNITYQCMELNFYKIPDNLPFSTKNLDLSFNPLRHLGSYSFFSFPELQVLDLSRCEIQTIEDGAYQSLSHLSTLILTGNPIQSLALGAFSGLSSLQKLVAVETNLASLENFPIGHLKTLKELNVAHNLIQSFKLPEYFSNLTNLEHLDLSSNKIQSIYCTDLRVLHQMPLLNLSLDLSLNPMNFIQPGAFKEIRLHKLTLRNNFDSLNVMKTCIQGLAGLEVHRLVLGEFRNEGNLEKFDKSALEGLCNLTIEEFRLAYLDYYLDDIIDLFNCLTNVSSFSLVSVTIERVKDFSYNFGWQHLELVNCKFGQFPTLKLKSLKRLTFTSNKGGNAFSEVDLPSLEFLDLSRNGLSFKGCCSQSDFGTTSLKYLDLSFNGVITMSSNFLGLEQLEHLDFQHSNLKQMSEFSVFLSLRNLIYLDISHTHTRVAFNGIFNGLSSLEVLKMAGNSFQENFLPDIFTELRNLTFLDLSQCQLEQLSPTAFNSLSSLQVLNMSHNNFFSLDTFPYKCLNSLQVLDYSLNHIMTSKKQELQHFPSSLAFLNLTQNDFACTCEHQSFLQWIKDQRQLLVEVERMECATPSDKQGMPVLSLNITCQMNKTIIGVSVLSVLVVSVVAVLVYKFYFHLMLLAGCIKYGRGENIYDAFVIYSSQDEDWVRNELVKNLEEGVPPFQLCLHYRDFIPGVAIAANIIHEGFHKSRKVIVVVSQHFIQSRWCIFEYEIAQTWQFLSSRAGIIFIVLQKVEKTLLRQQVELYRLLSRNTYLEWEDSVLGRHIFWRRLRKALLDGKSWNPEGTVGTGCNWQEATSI

Row | Structure (SMILES) | EC50 [1] | EC50 [2] | EC50 [3] | EC50 [4] | EC50 [5] | EC50 [6] | EC50 [7] | EC50 [8] | Activity [10] | Activity [11] | Activity [13] | Stability [15] | Stability [16] | Activity [18] | Activity [19] | Activity [21] | Activity [24] | Stability [25] | also measured
1 | CCCCCCCCCCCCCC(=O)O[C@H](CCCCCCCCCCC)CC(=O)O[C@@H]1[C@@H](NC(=O)C[C@H](CCCCCCCCCCC)OC(=O)CCCCCCCCCCCCC)[C@H](OC[C@H]2O[C@H](O)[C@H](NC(=O)C[C@H](O)CCCCCCCCCCC)[C@@H](OC(=O)C[C@H](O)CCCCCCCCCCC)[C@@H]2O)O[C@H](CO)[C@H]1OP(=O)(O)O | 6.23 nM | 0.99 nM | 10.4 nM | 0.76 nM | 2.11 nM | 0.49 nM | 1.4 nM | 1.92 nM | – | – | – | – | – | – | – | – | – | – | –
2 | CCCCCCCCCCC[C@H](CC(=O)NCCO[C@@H]1O[C@H](CO)[C@@H](OP(=O)(O)O)[C@H](OC(=O)C[C@@H](CCCCCCCCCCC)OC(=O)CCCCCCCCC)[C@H]1NC(=O)C[C@@H](CCCCCCCCCCC)OC(=O)CCCCCCCCC)OC(=O)CCCCCCCCC | 173 nM | 6.75 nM | 53.7 nM | 1.94 nM | 2.62 nM | 0.48 nM | 0.43 nM | 1.26 nM | – | – | – | – | – | – | – | – | – | – | Stability [9]: Stable
3 | CCCCCCCCCCC[C@H](CC(=O)N[C@H]1[C@H](OC[C@H](NC(=O)C[C@@H](CCCCCCCCCCC)OCCCCCCCCCC)C(=O)O)O[C@H](CO)[C@@H](OP(=O)(O)O)[C@H]1NC(=O)C[C@@H](CCCCCCCCCCC)OCCCCCCCCCC)OCCCCCCCCCC.CCN(CC)CC | 7.86 nM | 0.38 nM | 2.6 nM | 0.13 nM | 0.28 nM | 0.02 nM | 0.15 nM | 0.14 nM | Dose-Dependent Effect | Non-Toxic | Dose-Dependent Effect | Stable | Stable | Active | Non-Toxic | Active | Active | Stable | Survival [12]: 40%; Activity [14]: Dose-Dependent Effect; Activity [17]: Non-Toxic; Activity [20]: Non-Toxic; Activity [22]: Non-Toxic; Survival [23]: 80%; Activity [26]: Non-Toxic
4 | CCCCCCCCCCC[C@H](CC(=O)N[C@H]1[C@H](OC[C@H](NC(=O)C[C@@H](CCCCCCCCCCC)OCCCCCCCCCC)C(=O)O)O[C@H](CO)[C@@H](OS(=O)(=O)O)[C@H]1NC(=O)C[C@@H](CCCCCCCCCCC)OCCCCCCCCCC)OCCCCCCCCCC.CCN(CC)CC | 26.3 nM | 0.65 nM | 6.88 nM | 0.24 nM | 0.97 nM | 0.04 nM | 0.68 nM | 0.46 nM | Dose-Dependent Effect | Non-Toxic | Dose-Dependent Effect | Stable | Stable | Active | Non-Toxic | Active | Active | Stable | –

From ChEMBL document CHEMBL5370624 (J Med Chem, 2023)
